Assay results: patent US9469854B2, “Pharmaceutical composition for treating liver diseases” (Academia Sinica, priority 2014, dated 2016)

Columns and labels:
ACSM2A = test: qRT-PCR mRNA expression in primary human hepatocytes; type: cell-based; conditions: PHH, 40 μM berberine, 2-4 h
Description: (§1) The primary human hepatocytes from Caucasian donors were purchased from Invitrogen and cultured following the manufacturer's instructions. The hepatocytes were thawed and transferred into cryopreserved hepatocytes recovery medium (CM7000, Invitrogen), centrifuging at room temperature, 100×g for 10 min. Then, the hepatocytes were diluted to seeding density with plating medium (CM3000, Invitrogen) and added into collagen I-coated plates (Invitrogen). These plates were incubated at 37° C. for 4-6 hours under 5% CO2 for forming a monolayer. Then, plating medium was replaced by overlay incubation medium (CM4000 and 0.35 mg/mL Geltrex™ Matrix, Invitrogen), and the incubation medium was replaced daily. In the following examples, hepatocytes form 3 to 4 donors were used for experiments. A 50 mM stock solution of berberine chloride (Sigma-Aldrich) was prepared in dimethyl sulfoxide (DMSO). Cells were treated with 40 μM of berberine chloride or 0.08% DMSO as the control. For induction of lipid droplets formation in cultured cells, 200 μM of oleic acid (Sigma-Aldrich) was added into the culture medium for 24 h. Total RNA was extracted using a TRIZOL reagent (Invitrogen) according to the manufacturer's protocol. The total RNA quantity was measured using a NanoDrop ND-1000 spectrophotometer (Nanodrop Technologies). The total RNA quality and integrity were assayed using an Agilent 2100 bioanalyzer with an RNA 6000 nano kit (Agilent Technologies). Total RNAs (1 μg) were reverse-transcribed into cDNA by using M-MuLV Reverse Transcriptase (Thermo) and Oligo(dT)12-18 primers (Invitrogen) according to the manufacturer's protocol. The cDNA were then used for a real-time PCR with a LightCycler 480 SYBR Green I Master (Roche) by using primers shown in the following Table 1. The gene expression levels were normalized to GAPDH levels.

IL6R = test: as above; type: cell-based; conditions: PHH, 40 μM berberine, 4-8 h
Description: as §1

NAMPT = test: as above; type: cell-based; conditions: PHH, 40 μM berberine, 4-8 h
Description: as §1

ACACA = test: qRT-PCR mRNA expression in HepG2 cells; type: cell-based, human; conditions: HepG2, mimic transfection, 24 h
Description: The human HepG2 cells and HEK 293T cells used in the following examples were originally obtained from the American Tissue Culture Collection (ATCC, USA). The human HCC HepG2 cell line was cultured in Minimum Essential Medium Eagle (Sigma) supplemented with 10% fetal bovine serum (FBS) (Invitrogen), 2.2 g/L of sodium bicarbonate (Sigma), 0.1 mM of non-essential amino acids (Caisson), 1 mM of sodium pyruvate (Invitrogen), and 10 of ml/L penicillin-streptomycin-amphotericin solution (Biological Industries). Human HEK-293T cells were maintained in high-glucose Dulbecco's modified eagle medium (Invitrogen) supplemented with 10% FBS and 3.7 g/L of sodium bicarbonate (Sigma). Both cell lines were cultured at 37° C. and 5% CO2. A 50 mM stock solution of berberine chloride (Sigma-Aldrich) was prepared in dimethyl sulfoxide (DMSO). Cells were treated with 40 μM of berberine chloride or 0.08% DMSO as the control. For induction of lipid droplets formation in cultured cells, 200 μM of oleic acid (Sigma-Aldrich) was added into the culture medium for 24 h. Total RNA was extracted using a TRIZOL reagent (Invitrogen) according to the manufacturer's protocol. The total RNA quantity was measured using a NanoDrop ND-1000 spectrophotometer (Nanodrop Technologies). The total RNA quality and integrity were assayed using an Agilent 2100 bioanalyzer with an RNA 6000 nano kit (Agilent Technologies). Total RNAs (1 μg) were reverse-transcribed into cDNA by using M-MuLV Reverse Transcriptase (Thermo) and Oligo(dT)12-18 primers (Invitrogen) according to the manufacturer's protocol. The cDNA were then used for a real-time PCR with a LightCycler 480 SYBR Green I Master (Roche) by using primers shown in the following Table 1. The gene expression levels were normalized to GAPDH levels. […] Cells were incubated for 24 h or 48 h with a microRNA mimic or inhibitor prior to RNA purification for gene expression analysis, and were incubated for 72 h for protein expression analysis.

intracellular SAM = test: Measurement of intracellular SAM concentration in HepG2 cells; type: cell-based, human
Description: […] The intracellular SAM of 5×10^4 HepG2 cells pellet was resuspended in […] of an extraction solution (0.2% perchloric acid plus 0.08% (v/v) 2-mercaptoethanol in ddH2O). Cells were incubated at room temperature for 1 h and vortexed every 5 min. The suspension was centrifuged at 4° C. at 10000×g for 5 min, and then the supernatant was collected. SAM levels in the supernatants were quantified using the Bridge-It SAM fluorescence assay kit (Mediomics) and detected using SpectraMax plate reader (Molecular Devices) according to the manufacturer's instructions.

[1] = system: intracellular malonyl-CoA; test: Measurement of intracellular malonyl-CoA concentration in PHH cells; type: cell-based, human; conditions: 72-h mimic transfection
Description: After transfection with 50 nM of miR-21-3p mimic or the negative-control mimic for 72 h, the PHH cells and HepG2 cells were trypsinized. The intracellular malonyl-CoA concentration was measured using the malonyl-CoA ELISA Kit (MyBioSource) according to the manufacturer's instructions.

exon 23 of ACACB = test: Reporter examination of miR-21-3p and ACACB (technology similar to Example 6); type: cell-based, human
Description: (§2) The HEK-293T and HepG2 cells were seeded at a density of 5×10^4 cells per well in a 24-well culture plate the day before transfection. The HEK-293T and HepG2 cells were tri-transfected with (1) any one of the above-mentioned pMIR-REPORT-3′ UTR construction (300 ng), (2) the control Renilla luciferase reporter plasmid pRL-TK from Promega (10 ng), and (3) 50 nM of hsa-miR-21-3p mimic or negative-control mimic by using the Lipofectamine 2000 transfection reagent (Invitrogen) according to the manufacturer's instructions. Luciferase assays were performed after transfection for 48 h by using the Dual Luciferase reporter assay kit (Promega) and the Paradigm detection platform (Beckman) according to the manufacturer's protocol. The firefly luciferase activity was normalized relative to the Renilla luciferase activity.

3′ UTR sequence of DGAT2 = test: Reporter examination of miR-21-3p and DGAT2 3′ UTR (technology similar to Example 6); type: cell-based, human
Description: as §2

ACACA mRNA = test: mRNA stability assay; type: cell-based, human

Compound	mRNA expression of ACSM2A (ACSM2A)	mRNA expression of IL6R (IL6R)	mRNA expression of NAMPT (NAMPT)	decrease in mRNA expression of ACACA (ACACA) [%]	intracellular SAM contents increase (intracellular SAM; HepG2, mimic transfection 48 h vs NC mimic) [fold]	intracellular SAM contents increase (intracellular SAM; HepG2, mimic transfection 72 h vs NC mimic) [fold]	intracellular malonyl-CoA concentration decrease [1] [fold]	suppression of ACACB expression by binding exon 23 (exon 23 of ACACB) [fold]	suppression of DGAT2 expression by pairing with 3′ UTR (3′ UTR sequence of DGAT2) [fold]	half-life of ACACA mRNA (ACACA mRNA)
COc1ccc2cc3[n+](cc2c1OC)CCc1cc2c(cc1-3)OCO2 [berberine]	considerably decreases	decreases	increase							
hsa-miR-21-3p (CAACACCAGUCGAUGGGCUGU; listed as RNA, chemistry not given here) [miR-21-3p mimic]				44	1.6	3.0	2.2	1.4	1.4	reduced the half-life of ACACA mRNA
